Measured values reported in patent publication US20260184721A2, “FUSED RING COMPOUND, CONJUGATE THEREOF AND USE THEREOF” (Keymed Biosciences (Chengdu) Co., Ltd., priority 2022, published 2026).
pIC50: −log10 of the molar value. Like-named read-outs stand apart in the source and are kept apart here.

Legend:
SK-BR-3 tumor cells = experiment: In vitro proliferation inhibitory activity of compounds of Formula (GH) on SK-BR-3 tumor cells (CCK8); format: cell-based; conditions: Homo sapiens, SK-BR-3, 72 h, 3 days of culture, read-out: IC50 for inhibiting proliferation of SK-BR-3 cells in vitro
Protocol: The objective of this experiment is to detect the in vitro killing activity of the compound of Formula (GH) of the present disclosure on SK-BR-3 tumor cells (human breast cancer cells, Wuhan Procell, Catalog No. CL-0211). The cells were treated with different concentrations of the compound in vitro. After 3 days of culture, the number of viable cells was detected using CCK8 (Cell Counting Kit-8, Catalog No. TS547) reagents, and the in vitro activity of the test compound was evaluated according to the IC50 value.
Taking the test method of in vitro killing activity on SK-BR-3 cells as an example, the following test was performed. […] After the cells were completely digested, 10 mL of cell culture medium containing 2% FBS was added to wash out the digested cells, centrifugation was performed at 300 g for 5 min, the supernatant was discarded, and then 10 to 20 mL of cell culture medium containing 2% FBS was added to resuspend the cells to prepare a single cell suspension. • (3) Cell plating: The SK-BR-3 single cell suspension was mixed well, the viable cell density was adjusted to 6×10^4 cells/mL with the cell culture medium containing 2% FBS, the cell suspension after density adjustment was mixed well, and added to a 96-well cell culture plate at 100 μL/well. Only 200 μL of PBS was added to the peripheral wells of the 96-well plate. The culture plate was incubated in an incubator for 24 hours (37° C., 5% CO2). • (4) Compound preparation: The compound was dissolved in DMSO (dimethyl sulfoxide, SIGMA) to prepare a 2 mM stock solution.
The starting concentrations of small molecule compounds and Dxd were both 600 nM, and the preparation method was as follows.
Then, 315 μL of different samples to be tested were added to the first column of a 96-well U-bottomed drug distribution plate, and the sample concentration was 1200 nM; 210 μL of the cell culture medium containing 2% FBS was added to each well of the second to tenth columns. 105 μL of the sample was taken from the first column and added to the 210 μL cell culture medium in the second column and mixed well, and 105 μL was taken and added to the third column, and so on to the tenth column. • (5) Sample loading operation: 100 μL of the sample to be tested of different concentrations was added to the culture plate, and two replicate wells were set for each sample. The culture plate was incubated in an incubator for 3 days (37° C., 5% CO2). • (6) Color development operation: The 96-well cell culture plate was taken out, the cell culture supernatant was removed by tapping, 100 μL of the RPMI 1640 basal medium (without FBS) containing 10% CCK8 was added, and then it was incubated in an incubator for about 1.5 hours (37° C., 5% CO2). • (7) Plate reading operation: The 96-well cell culture plate was taken out, placed in an ELISA reader (MD SpectraMax i3X), and A450 was determined by the ELISA reader. • (8) Data analysis: Microsoft Excel and Graphpad Prism 5 were used to process and analyze the data.

NCI-N87 tumor cells = experiment: In vitro proliferation inhibitory activity of compounds of Formula (GH) on NCI-N87 tumor cells (CCK8); format: cell-based, human; conditions: 6 days of culture, CCK8, read-out: IC50 for inhibiting proliferation of NCI-N87 cells in vitro
Protocol: The objective of this experiment is to detect the in vitro killing activity of the compound of Formula (GH) disclosed in the present invention on NCI-N87 tumor cells (human gastric cancer cells, Cell Resource Center, Institute of Basic Medicine, Chinese Academy of Medical Sciences, Catalog No. 3111C0001CCC000481). The cells were treated with different concentrations of the compound in vitro, and after 6 days of culture, the number of viable cells was detected using CCK8 (Cell Counting Kit-8, Catalog No. TS547) reagents, and the in vitro activity of the test compound was evaluated according to the IC50 value.
• (1) Cell culture: NCI-N87 cells were cultured in the RPMI 1640 medium containing 2% FBS (Shanghai BasalMedia Technologies Co., Ltd., Catalog No. L210KJ). • (2) Cell preparation: NCI-N87 cells in the logarithmic growth phase were taken, washed once with PBS (phosphate buffered saline, Shanghai BasalMedia Technologies Co., Ltd., Catalog No. E211004), added with 1 mL of trypsin (0.25% Trypsin-EDTA (1×), Shanghai BasalMedia Technologies Co., Ltd., Catalog No. A121002) to allow digestion for 2 to 3 minutes. After the cells were completely digested, 10 mL of the cell culture medium was added to wash off and obtain the digested cells, centrifugation was performed at 300 times gravitational acceleration (g) for 5 min, the supernatant was discarded, then 10 mL of PBS was added to wash the cells once, centrifugation was performed at 300 times gravitational acceleration (g) for 5 minutes, the supernatant was discarded, and 10 mL of the cell culture medium containing 2% FBS was added to resuspend the cells to prepare a single cell suspension. • (3) Cell plating: The NCI-N87 single cell suspension was mixed, the density of live cells was adjusted to 3×10^4 cells/mL with 2% FBS cell culture medium, the cell suspension after density adjustment was mixed well, and added to a 96-well cell culture plate at 100 μL/well. Only 200 μL of PBS was added to each of the peripheral wells of the 96-well plate. The plate was incubated in an incubator for 24 hours (37° C., 5% CO2). • (4) Preparation of sample to be tested:
The sample to be tested was diluted to 3200 nM with cell culture medium containing 2% FBS, then 300 μL of the sample was added to the first well of a 96-well U-bottomed plate with a sample concentration of 3200 nM; and 210 μL of cell culture medium containing 2% FBS was added to each well of the second to tenth columns. 70 μL of the sample was taken from the first column and added to the 210 μL cell culture medium in the second column and mixed well, 70 μL was taken and added to the third column, and so on to the ninth column. • (5) Sample loading operation: 100 μL of the sample to be tested with different concentrations was added to the culture plate, two replicate wells were set for each sample. The culture plate was incubated in an incubator for 6 days (37° C., 5% CO2). • (6) Color development operation: The 96-well cell culture plate was taken out, the supernatant of the culture medium was removed by tapping, 100 μL of 10% CCK8 (prepared with RPMI 1640 basal culture medium, without FBS) solution was added to each well, and incubation was performed in an incubator for 2 hours. • (7) Plate reading operation: The 96-well cell culture plate was taken out, placed in an ELISA reader (SpectraMax i3X), and A450 was determined by the ELISA reader. • (8) Data analysis: Microsoft Excel and Graphpad Prism 5 were used to process and analyze the data.

SMILES | pIC50 (SK-BR-3 tumor cells) | pIC50 (NCI-N87 tumor cells; Homo sapiens, NCI-N87) | pIC50 (NCI-N87 tumor cells)
Cc1c(F)cc2nc3c(c4c2c1CC[C@H]4NC(=O)CO)Cn1c-3cc2c(c1=O)COC(=O)[C@]2(O)CC1CC1 [Compound 1-A, N-((1R,9S)-9-(cyclopropylmethyl)-5-fluoro-9-hydroxy-4-methyl-10,13-dioxo-2,3,9,10,13,15-hexahydro-1H,12H-benzo[de]pyrano[3′,4′:6,7]indolizino[1,2-b]quinolin-1-yl)-2-hydroxyacetamide] | 9.03 | – | –
Cc1c(F)cc2nc3c(c4c2c1CC[C@@H]4NC(=O)CO)Cn1c-3cc2c(c1=O)COC(=O)[C@]2(O)CC1CC1 [Compound 1-B, N-((1S,9S)-9-(cyclopropylmethyl)-5-fluoro-9-hydroxy-4-methyl-10,13-dioxo-2,3,9,10,13,15-hexahydro-1H,12H-benzo[de]pyrano[3′,4′:6,7]indolizino[1,2-b]quinolin-1-yl)-2-hydroxyacetamide] | 8.71 | 8.27 | –
Cc1c(F)cc2nc3c(c4c2c1CC[C@@H]4NC(=O)[C@H](C)O)Cn1c-3cc2c(c1=O)COC(=O)[C@]2(O)CC1CC1 [Compound 2-A, (S)-N-((1S,9S)-9-(Cyclopropylmethyl)-5-fluoro-9-hydroxy-4-methyl-10,13-dioxo-2,3,9,10,13,15-hexahydro-1H,12H-benzo[de]pyrano[3′,4′:6,7]indolizino[1,2-b]quinolin-1-yl)-2-hydroxypropanamide] | 8.23 | 8.72 | –
Cc1c(F)cc2nc3c(c4c2c1CC[C@H]4NC(=O)[C@H](C)O)Cn1c-3cc2c(c1=O)COC(=O)[C@]2(O)CC1CC1 [Compound 2-B, (S)-N-((1R,9S)-9-(Cyclopropylmethyl)-5-fluoro-9-hydroxy-4-methyl-10,13-dioxo-2,3,9,10,13,15-hexahydro-1H,12H-benzo[de]pyrano[3′,4′:6,7]indolizino[1,2-b]quinolin-1-yl)-2-hydroxypropanamide] | 7.92 | – | –
Cc1c(F)cc2nc3c(c4c2c1CC[C@@H]4NC(=O)[C@@H](C)O)Cn1c-3cc2c(c1=O)COC(=O)[C@]2(O)CC1CC1 [Compound 3-A, (R)-N-((1S,9S)-9-(cyclopropylmethyl)-5-fluoro-9-hydroxy-4-methyl-10,13-dioxo-2,3,9,10,13,15-hexahydro-1H,12H-benzo[de]pyrano[3′,4′:6,7]indolizino[1,2-b]quinolin-1-yl)-2-hydroxypropanamide] | 8.23 | 8.28 | –
Cc1c(F)cc2nc3c(c4c2c1CC[C@H]4NC(=O)[C@@H](C)O)Cn1c-3cc2c(c1=O)COC(=O)[C@]2(O)CC1CC1 [Compound 3-B, (R)-N-((1R,9S)-9-(cyclopropylmethyl)-5-fluoro-9-hydroxy-4-methyl-10,13-dioxo-2,3,9,10,13,15-hexahydro-1H,12H-benzo[de]pyrano[3′,4′:6,7]indolizino[1,2-b]quinolin-1-yl)-2-hydroxypropanamide] | 8.63 | – | –
Cc1c(F)cc2nc3c(c4c2c1CC[C@H]4NC(=O)[C@@H](O)C1CC1)Cn1c-3cc2c(c1=O)COC(=O)[C@]2(O)CC1CC1 [Compound 4-B, (S)-2-cyclopropyl-N-((1R,9S)-9-(cyclopropylmethyl)-5-fluoro-9-hydroxy-4-methyl-10,13-dioxo-2,3,9,10,13,15-hexahydro-1H,12H-benzo[de]pyrano[3′,4′:6,7]indolizino[1,2-b]quinolin-1-yl)-2-hydroxyacetamide] | 8.30 | – | –
Cc1c(F)cc2nc3c(c4c2c1CC[C@@H]4NC(=O)[C@H](O)C1CC1)Cn1c-3cc2c(c1=O)COC(=O)[C@]2(O)CC1CC1 [Compound 5-A, (R)-2-Cyclopropyl-N-((1S,9S)-9-(cyclopropylmethyl)-5-fluoro-9-hydroxy-4-methyl-10,13-dioxo-2,3,9,10,13,15-hexahydro-1H,12H-benzo[de]pyrano[3′,4′:6,7]indolizino[1,2-b]quinolin-1-yl)-2-hydroxyacetamide] | 8.03 | – | –
CC[C@@]1(O)C(=O)OCc2c1cc1n(c2=O)Cc2c-1nc1cc(F)c3c(c1c2CNC(=O)CO)CCC3 [Compound 24, (S)-N-((8-ethyl-4-fluoro-8-hydroxy-9,12-dioxo-2,3,8,9,12,14-hexahydro-1H,11H-cyclopenta[f]pyrano[3′,4′:6,7]indolizino[1,2-b]quinolin-15-yl)methyl)-2-hydroxyacetamide] | 8.24 | – | –
CC[C@@]1(O)C(=O)OCc2c1cc1n(c2=O)Cc2c-1nc1cc(F)c3c(c1c2CNC(=O)[C@@H](C)O)CCC3 [Compound 26, (R)-N-(((S)-8-Ethyl-4-fluoro-8-hydroxy-9,12-dioxo-2,3,8,9,12,14-hexahydro-1H,11H-cyclopenta[f]pyrano[3′,4′:6,7]indolizino[1,2-b]quinolin-15-yl)methyl)-2-hydroxypropanamide] | 8.08 | – | –
CC[C@@]1(O)C(=O)OCc2c1cc1n(c2=O)Cc2c-1nc1cc(F)c3c(c1c2CNC(=O)[C@@H](O)C1CC1)CCC3 [Compound 27, (S)-2-Cyclopropyl-N-(((S)-8-ethyl-4-fluoro-8-hydroxy-9,12-dioxo-2,3,8,9,12,14-hexahydro-1H,11H-cyclopenta[f]pyrano[3′,4′:6,7]indolizino[1,2-b]quinolin-15-yl)methyl)-2-hydroxyacetamide] | 7.86 | – | –
CC[C@@]1(O)C(=O)OCc2c1cc1n(c2=O)Cc2c-1nc1cc(F)c3c(c1c2CNC(=O)[C@H](O)C1CC1)CCC3 [Compound 28, (R)-2-Cyclopropyl-N-(((S)-8-ethyl-4-fluoro-8-hydroxy-9,12-dioxo-2,3,8,9,12,14-hexahydro-1H,11H-cyclopenta[f]pyrano[3′,4′:6,7]indolizino[1,2-b]quinolin-15-yl)methyl)-2-hydroxyacetamide] | 7.82 | – | –
CC[C@@]1(O)C(=O)OCc2c1cc1n(c2=O)Cc2c-1nc1cc(F)c(C)c3c1c2[C@@H](NC(=O)CO)CC3 [Dxd, reference compound] | – | – | 7.99
